From ChEMBL document CHEMBL4507280 (2021)

Key:
[1] = molecular target: Phosphatidylinositol 4-phosphate 5-kinase type-1 gamma (Homo sapiens) (UniProt O60331); settings: Compound concentration 1000.0 nM
[2] = molecular target: Sodium-dependent noradrenaline transporter (Homo sapiens) (UniProt P23975); settings: Compound concentration 10.0 uM
[3] = molecular target: Dual specificity tyrosine-phosphorylation-regulated kinase 1B (Homo sapiens) (UniProt Q9Y463); settings: Compound concentration 1000.0 nM
[4] = molecular target: Serine/threonine-protein kinase 24 (Homo sapiens) (UniProt Q9Y6E0); settings: Compound concentration 1000.0 nM
[5] = molecular target: Dual specificity protein kinase CLK3 (Homo sapiens) (UniProt P49761); settings: Compound concentration 1000.0 nM
[6] = molecular target: Cyclin-dependent kinase 11A (Homo sapiens) (UniProt Q9UQ88); settings: Compound concentration 1000.0 nM
Chain of Cyclin-dependent kinase 11A (Homo sapiens) (Q9UQ88 whole entry): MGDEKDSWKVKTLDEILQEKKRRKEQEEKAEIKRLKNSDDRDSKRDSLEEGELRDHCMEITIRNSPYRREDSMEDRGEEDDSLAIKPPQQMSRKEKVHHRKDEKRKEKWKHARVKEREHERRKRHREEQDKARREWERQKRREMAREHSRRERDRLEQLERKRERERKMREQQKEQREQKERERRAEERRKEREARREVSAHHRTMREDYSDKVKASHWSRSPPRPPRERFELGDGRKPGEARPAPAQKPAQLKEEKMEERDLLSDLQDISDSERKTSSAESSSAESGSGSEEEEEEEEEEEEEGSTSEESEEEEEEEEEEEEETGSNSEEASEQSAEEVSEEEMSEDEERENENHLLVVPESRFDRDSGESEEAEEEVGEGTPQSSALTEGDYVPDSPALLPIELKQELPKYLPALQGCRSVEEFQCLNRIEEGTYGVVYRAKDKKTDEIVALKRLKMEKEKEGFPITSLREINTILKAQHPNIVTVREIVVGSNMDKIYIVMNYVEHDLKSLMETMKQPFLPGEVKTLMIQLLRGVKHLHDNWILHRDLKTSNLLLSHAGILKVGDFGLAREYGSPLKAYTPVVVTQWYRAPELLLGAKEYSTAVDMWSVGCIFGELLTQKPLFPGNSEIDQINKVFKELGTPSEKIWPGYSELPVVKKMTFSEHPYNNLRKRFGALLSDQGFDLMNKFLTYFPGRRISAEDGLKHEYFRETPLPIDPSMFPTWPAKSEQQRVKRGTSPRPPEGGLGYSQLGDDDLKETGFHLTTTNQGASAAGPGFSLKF

[7] = molecular target: Tyrosine-protein kinase BTK (Homo sapiens) (UniProt Q06187); settings: Compound concentration 1000.0 nM
Chain of Tyrosine-protein kinase BTK (Homo sapiens) (Q06187 whole entry): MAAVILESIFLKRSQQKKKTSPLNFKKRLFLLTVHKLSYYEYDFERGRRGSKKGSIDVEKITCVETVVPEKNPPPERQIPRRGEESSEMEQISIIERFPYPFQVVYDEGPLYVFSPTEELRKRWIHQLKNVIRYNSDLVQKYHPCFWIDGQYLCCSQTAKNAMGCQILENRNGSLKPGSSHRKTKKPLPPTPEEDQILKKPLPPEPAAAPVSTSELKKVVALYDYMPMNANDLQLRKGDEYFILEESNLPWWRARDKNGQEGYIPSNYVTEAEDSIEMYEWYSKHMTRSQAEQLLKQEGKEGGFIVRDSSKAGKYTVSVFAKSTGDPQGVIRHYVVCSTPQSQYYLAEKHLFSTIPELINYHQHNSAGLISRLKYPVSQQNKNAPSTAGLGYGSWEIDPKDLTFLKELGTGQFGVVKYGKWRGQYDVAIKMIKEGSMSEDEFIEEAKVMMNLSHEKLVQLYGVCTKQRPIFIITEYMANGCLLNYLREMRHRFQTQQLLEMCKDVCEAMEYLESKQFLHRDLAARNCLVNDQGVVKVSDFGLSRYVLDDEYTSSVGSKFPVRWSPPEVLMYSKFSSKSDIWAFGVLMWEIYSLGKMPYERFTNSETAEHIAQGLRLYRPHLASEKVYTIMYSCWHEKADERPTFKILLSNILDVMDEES

[8] = molecular target: Ephrin type-A receptor 4 (Homo sapiens) (UniProt P54764); settings: Compound concentration 1000.0 nM
[9] = molecular target: NUAK family SNF1-like kinase 1 (Homo sapiens) (UniProt O60285); settings: Compound concentration 1000.0 nM
[10] = test system: Mast/stem cell growth factor receptor Kit (Homo sapiens), P10721 [V559D,V654A]; settings: Compound concentration 1000.0 nM
[11] = molecular target: Serine/threonine-protein kinase Nek1 (Homo sapiens) (UniProt Q96PY6); settings: Compound concentration 1000.0 nM
[12] = molecular target: Mitogen-activated protein kinase kinase kinase 13 (Homo sapiens) (UniProt O43283); settings: Compound concentration 1000.0 nM
Chain of Mitogen-activated protein kinase kinase kinase 13 (Homo sapiens) (O43283 whole entry): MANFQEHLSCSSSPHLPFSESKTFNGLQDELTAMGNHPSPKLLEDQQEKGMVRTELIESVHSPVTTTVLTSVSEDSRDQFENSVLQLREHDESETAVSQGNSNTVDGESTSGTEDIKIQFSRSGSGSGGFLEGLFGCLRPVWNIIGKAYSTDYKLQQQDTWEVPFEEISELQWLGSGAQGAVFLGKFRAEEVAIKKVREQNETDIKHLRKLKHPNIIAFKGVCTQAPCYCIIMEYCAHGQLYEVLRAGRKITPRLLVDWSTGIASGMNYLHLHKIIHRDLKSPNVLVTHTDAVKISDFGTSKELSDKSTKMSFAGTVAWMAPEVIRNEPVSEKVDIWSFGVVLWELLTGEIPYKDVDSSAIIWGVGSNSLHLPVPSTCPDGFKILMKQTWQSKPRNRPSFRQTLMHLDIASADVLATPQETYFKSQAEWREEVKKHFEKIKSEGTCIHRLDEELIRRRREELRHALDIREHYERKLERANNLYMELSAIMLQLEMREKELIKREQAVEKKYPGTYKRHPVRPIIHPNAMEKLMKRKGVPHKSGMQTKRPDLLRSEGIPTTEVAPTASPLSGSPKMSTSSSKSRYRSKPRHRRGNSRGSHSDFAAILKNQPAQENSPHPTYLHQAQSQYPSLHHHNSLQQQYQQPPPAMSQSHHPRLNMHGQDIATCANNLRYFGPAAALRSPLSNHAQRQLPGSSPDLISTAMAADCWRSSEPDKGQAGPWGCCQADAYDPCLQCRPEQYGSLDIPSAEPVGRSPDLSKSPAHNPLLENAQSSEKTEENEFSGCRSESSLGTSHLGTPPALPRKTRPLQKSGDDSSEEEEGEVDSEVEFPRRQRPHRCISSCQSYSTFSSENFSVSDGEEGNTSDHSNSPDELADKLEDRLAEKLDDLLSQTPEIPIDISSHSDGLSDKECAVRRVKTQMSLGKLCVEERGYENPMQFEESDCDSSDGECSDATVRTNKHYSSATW

[13] = molecular target: Tyrosine-protein kinase Lyn (Homo sapiens) (UniProt P07948); settings: Compound concentration 1000.0 nM
Chain of Tyrosine-protein kinase Lyn (Homo sapiens) (P07948 2-512 limits assumed): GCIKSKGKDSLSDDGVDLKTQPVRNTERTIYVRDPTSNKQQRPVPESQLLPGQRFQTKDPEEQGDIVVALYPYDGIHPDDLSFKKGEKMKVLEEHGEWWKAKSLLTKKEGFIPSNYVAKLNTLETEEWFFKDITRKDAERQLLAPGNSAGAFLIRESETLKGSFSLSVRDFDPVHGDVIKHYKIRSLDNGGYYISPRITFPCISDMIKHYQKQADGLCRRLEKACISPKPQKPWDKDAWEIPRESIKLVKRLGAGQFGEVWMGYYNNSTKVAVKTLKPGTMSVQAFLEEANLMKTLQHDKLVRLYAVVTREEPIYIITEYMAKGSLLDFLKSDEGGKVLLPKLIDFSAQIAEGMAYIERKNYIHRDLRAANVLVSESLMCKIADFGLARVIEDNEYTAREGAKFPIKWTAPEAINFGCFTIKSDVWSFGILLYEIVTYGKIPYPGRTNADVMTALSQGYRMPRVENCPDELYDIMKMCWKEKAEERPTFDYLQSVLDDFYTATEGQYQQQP

[14] = test system: Tyrosine-protein kinase ABL1 (Homo sapiens), P00519 [E255K]; settings: Compound concentration 1000.0 nM
[15] = molecular target: Mitogen-activated protein kinase 12 (Homo sapiens) (UniProt P53778); settings: Compound concentration 1000.0 nM
[16] = molecular target: Tyrosine-protein kinase TXK (Homo sapiens) (UniProt P42681); settings: Compound concentration 1000.0 nM
[17] = molecular target: Serine/threonine-protein kinase MRCK gamma (Homo sapiens) (UniProt Q6DT37); settings: Compound concentration 1000.0 nM
[18] = molecular target: Serine/threonine-protein kinase SIK1 (Homo sapiens) (UniProt P57059); settings: Compound concentration 1000.0 nM
[19] = molecular target: 5-hydroxytryptamine receptor 1A (Homo sapiens) (UniProt P08908); settings: Compound concentration 10.0 uM
[20] = molecular target: Casein kinase I isoform delta (Homo sapiens) (UniProt P48730); settings: Compound concentration 1000.0 nM
[21] = molecular target: Ephrin type-A receptor 7 (Homo sapiens) (UniProt Q15375); settings: Compound concentration 1000.0 nM
[22] = molecular target: Tyrosine-protein kinase receptor Tie-1 (Homo sapiens) (UniProt P35590); settings: Compound concentration 1000.0 nM
[23] = molecular target: 5-hydroxytryptamine receptor 5A (Homo sapiens) (UniProt P47898); settings: Compound concentration 10.0 uM
[24] = molecular target: Mitogen-activated protein kinase 13 (Homo sapiens) (UniProt O15264); settings: Compound concentration 1000.0 nM
Chain of Mitogen-activated protein kinase 13 (Homo sapiens) (O15264 whole entry): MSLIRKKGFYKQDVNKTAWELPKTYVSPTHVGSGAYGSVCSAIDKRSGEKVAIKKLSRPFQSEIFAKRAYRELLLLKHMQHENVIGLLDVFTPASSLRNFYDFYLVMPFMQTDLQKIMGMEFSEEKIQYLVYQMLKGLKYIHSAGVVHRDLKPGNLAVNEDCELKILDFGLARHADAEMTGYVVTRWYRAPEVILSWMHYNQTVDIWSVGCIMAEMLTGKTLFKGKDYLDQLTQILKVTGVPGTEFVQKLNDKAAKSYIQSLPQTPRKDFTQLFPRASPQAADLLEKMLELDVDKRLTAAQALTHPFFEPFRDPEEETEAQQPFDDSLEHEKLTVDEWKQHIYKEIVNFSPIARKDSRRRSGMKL

[25] = test system: Hepatocyte growth factor receptor (Homo sapiens), P08581 [Y1235D]; settings: Compound concentration 1000.0 nM
[26] = test system: Mast/stem cell growth factor receptor Kit (Homo sapiens), P10721 [D816V]; settings: Compound concentration 1000.0 nM
[27] = molecular target: Transient receptor potential cation channel subfamily M member 6 (Homo sapiens) (UniProt Q9BX84); settings: Compound concentration 1000.0 nM
[28] = molecular target: Phosphatidylinositol 4-phosphate 5-kinase type-1 alpha (Homo sapiens) (UniProt Q99755); settings: Compound concentration 1000.0 nM
[29] = molecular target: 5'-AMP-activated protein kinase catalytic subunit alpha-2 (Homo sapiens) (UniProt P54646); settings: Compound concentration 1000.0 nM
Chain of 5'-AMP-activated protein kinase catalytic subunit alpha-2 (Homo sapiens) (P54646 whole entry, looked up): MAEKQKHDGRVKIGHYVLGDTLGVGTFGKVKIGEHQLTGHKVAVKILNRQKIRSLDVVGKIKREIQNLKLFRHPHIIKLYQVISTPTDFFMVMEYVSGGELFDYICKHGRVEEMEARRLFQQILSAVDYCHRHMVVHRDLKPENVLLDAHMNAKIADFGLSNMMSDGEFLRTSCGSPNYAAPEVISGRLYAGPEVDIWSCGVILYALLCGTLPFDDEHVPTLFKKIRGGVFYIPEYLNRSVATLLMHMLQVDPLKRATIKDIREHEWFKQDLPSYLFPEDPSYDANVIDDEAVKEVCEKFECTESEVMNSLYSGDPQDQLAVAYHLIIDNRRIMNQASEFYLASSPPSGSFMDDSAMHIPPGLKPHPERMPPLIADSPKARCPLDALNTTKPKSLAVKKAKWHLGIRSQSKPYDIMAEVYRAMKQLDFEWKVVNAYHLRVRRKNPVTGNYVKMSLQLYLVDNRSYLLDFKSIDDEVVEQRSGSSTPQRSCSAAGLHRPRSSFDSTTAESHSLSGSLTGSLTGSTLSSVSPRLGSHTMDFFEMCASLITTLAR

[30] = molecular target: Serine/threonine-protein kinase Sgk3 (Homo sapiens) (UniProt Q96BR1); settings: Compound concentration 1000.0 nM
[31] = molecular target: Ephrin type-B receptor 2 (Homo sapiens) (UniProt P29323); settings: Compound concentration 1000.0 nM
[32] = molecular target: Tyrosine-protein kinase Fyn (Homo sapiens) (UniProt P06241); settings: Compound concentration 1000.0 nM
[33] = molecular target: Serine/threonine-protein kinase 3 (Homo sapiens) (UniProt Q13188); settings: Compound concentration 1000.0 nM
[34] = molecular target: Cyclin-dependent kinase 4 (Homo sapiens) (UniProt P11802); settings: Compound concentration 1000.0 nM
Chain of Cyclin-dependent kinase 4 (Homo sapiens) (P11802 whole entry): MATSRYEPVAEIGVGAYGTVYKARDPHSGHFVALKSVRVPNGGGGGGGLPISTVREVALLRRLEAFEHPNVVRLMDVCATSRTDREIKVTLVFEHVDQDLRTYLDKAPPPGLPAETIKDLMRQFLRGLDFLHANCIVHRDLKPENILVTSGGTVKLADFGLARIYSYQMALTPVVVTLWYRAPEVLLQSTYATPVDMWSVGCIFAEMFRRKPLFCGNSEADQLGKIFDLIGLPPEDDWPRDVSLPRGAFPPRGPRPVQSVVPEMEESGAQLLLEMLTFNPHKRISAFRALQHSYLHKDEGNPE

[35] = molecular target: Dual specificity testis-specific protein kinase 1 (Homo sapiens) (UniProt Q15569); settings: Compound concentration 1000.0 nM
[36] = molecular target: Serine/threonine-protein kinase 17B (Homo sapiens) (UniProt O94768); settings: Compound concentration 1000.0 nM
[37] = molecular target: Serine/threonine-protein kinase BRSK2 (Homo sapiens) (UniProt Q8IWQ3); settings: Compound concentration 1000.0 nM
Chain of Serine/threonine-protein kinase BRSK2 (Homo sapiens) (Q8IWQ3 whole entry): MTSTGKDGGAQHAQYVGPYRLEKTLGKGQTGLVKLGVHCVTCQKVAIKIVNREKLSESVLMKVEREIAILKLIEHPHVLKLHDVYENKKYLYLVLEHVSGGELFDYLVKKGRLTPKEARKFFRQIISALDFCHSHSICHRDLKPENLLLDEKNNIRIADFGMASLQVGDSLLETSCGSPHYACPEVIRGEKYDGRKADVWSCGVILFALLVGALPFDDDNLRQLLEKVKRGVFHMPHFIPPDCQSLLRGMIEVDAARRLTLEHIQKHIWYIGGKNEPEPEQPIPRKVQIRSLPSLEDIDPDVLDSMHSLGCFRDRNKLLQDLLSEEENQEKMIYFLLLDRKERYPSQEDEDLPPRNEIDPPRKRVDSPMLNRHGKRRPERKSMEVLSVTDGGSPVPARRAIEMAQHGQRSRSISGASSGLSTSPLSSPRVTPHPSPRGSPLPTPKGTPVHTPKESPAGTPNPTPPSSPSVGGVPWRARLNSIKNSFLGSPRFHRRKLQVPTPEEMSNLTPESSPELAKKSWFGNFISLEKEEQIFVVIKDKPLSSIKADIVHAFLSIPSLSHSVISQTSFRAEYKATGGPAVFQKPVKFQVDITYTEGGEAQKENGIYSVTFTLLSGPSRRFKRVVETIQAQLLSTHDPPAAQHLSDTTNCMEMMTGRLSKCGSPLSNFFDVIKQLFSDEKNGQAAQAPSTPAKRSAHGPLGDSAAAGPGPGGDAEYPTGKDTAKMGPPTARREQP

[38] = molecular target: Histamine H1 receptor (Homo sapiens) (UniProt P35367); settings: Compound concentration 10.0 uM
[39] = test system: Receptor-type tyrosine-protein kinase FLT3 (Homo sapiens), P36888 [UNDEFINED MUTATION]; settings: Compound concentration 1000.0 nM
[40] = molecular target: Serine/threonine-protein kinase PLK3 (Homo sapiens) (UniProt Q9H4B4); settings: Compound concentration 1000.0 nM
[41] = molecular target: Ephrin type-A receptor 8 (Homo sapiens) (UniProt P29322); settings: Compound concentration 1000.0 nM
[42] = molecular target: Ephrin type-A receptor 2 (Homo sapiens) (UniProt P29317); settings: Compound concentration 1000.0 nM
[43] = molecular target: Serine/threonine-protein kinase 35 (Homo sapiens) (UniProt Q8TDR2); settings: Compound concentration 1000.0 nM
[44] = molecular target: Beta-3 adrenergic receptor (Homo sapiens) (UniProt P13945); settings: Compound concentration 10.0 uM
[45] = molecular target: Serine/threonine-protein kinase PAK 5 (Homo sapiens) (UniProt Q9P286); settings: Compound concentration 1000.0 nM

SMILES: CCC(=O)N[C@@H]1CC[C@H](C(=O)N(C)c2ccc(-c3nc4ccccc4o3)cc2)C1 [BI 99990]
- residual activity [1]: 100%
- inhibition [2]: 14.5%
- residual activity [3]: 36%
- residual activity [4]: 100%
- residual activity [5]: 100%
- residual activity [6]: 100%
- residual activity [7]: 87%
- residual activity [8]: 100%
- residual activity [9]: 100%
- residual activity [10]: 100%
- residual activity [11]: 100%
- residual activity [12]: 100%
- residual activity [13]: 92%
- residual activity [14]: 100%
- residual activity [15]: 73%
- residual activity [16]: 77%
- residual activity [17]: 100%
- residual activity [18]: 95%
- inhibition [19]: 8.28%
- residual activity [20]: 100%
- residual activity [21]: 100%
- residual activity [22]: 95%
- inhibition [23]: -3.5%
- residual activity [24]: 100%
- residual activity [25]: 100%
- residual activity [26]: 89%
- residual activity [27]: 84%
- residual activity [28]: 86%
- residual activity [29]: 74%
- residual activity [30]: 100%
- residual activity [31]: 82%
- residual activity [32]: 85%
- residual activity [33]: 100%
- residual activity [34]: 97%
- residual activity [35]: 75%
- residual activity [36]: 99%
- residual activity [37]: 76%
- inhibition [38]: 18.6%
- residual activity [39]: 94%
- residual activity [40]: 84%
- residual activity [41]: 100%
- residual activity [42]: 94%
- residual activity [43]: 100%
- inhibition [44]: -2.82%
- residual activity [45]: 100%

SMILES: CCC(=O)N[C@H]1CC[C@@H](C(=O)N(C)c2ccc(-c3nc4ccccc4o3)cc2)C1 [BI 99179]
- residual activity [1]: 100%
- inhibition [2]: 2.94%
- residual activity [3]: 100%
- residual activity [4]: 95%
- residual activity [5]: 91%
- residual activity [6]: 97%
- residual activity [7]: 77%
- residual activity [8]: 79%
- residual activity [9]: 100%
- residual activity [10]: 89%
- residual activity [11]: 100%
- residual activity [12]: 87%
- residual activity [13]: 100%
- residual activity [14]: 75%
- residual activity [15]: 67%
- residual activity [16]: 100%
- residual activity [17]: 91%
- residual activity [18]: 89%
- inhibition [19]: 19.5%
- residual activity [20]: 96%
- residual activity [21]: 97%
- residual activity [22]: 100%
- inhibition [23]: -1.85%
- residual activity [24]: 85%
- residual activity [25]: 100%
- residual activity [26]: 86%
- residual activity [27]: 76%
- residual activity [28]: 100%
- residual activity [29]: 88%
- residual activity [30]: 66%
- residual activity [31]: 100%
- residual activity [32]: 100%
- residual activity [33]: 100%
- residual activity [34]: 78%
- residual activity [35]: 100%
- residual activity [36]: 84%
- residual activity [37]: 97%
- inhibition [38]: 20.9%
- residual activity [39]: 100%
- residual activity [40]: 74%
- residual activity [41]: 96%
- residual activity [42]: 100%
- residual activity [43]: 88%
- inhibition [44]: 34.9%
- residual activity [45]: 100%
